From patent USRE48461E1, “Modulation of androgen receptor expression” (Ionis Pharmaceuticals, Inc., priority 2012, dated 2021)

Columns and labels:
LMR20 cells = assay: MDV3100 IC50 in LMR20 clone compared to parental LnCaP cells; type: cell-based, human
[1] = test system: V7 splice variant of the AR mRNA; assay: AR V7 splice variant mRNA in CWR22-RV1 cells (RT-PCR SYBR Green); type: cell-based, human; conditions: RNAiMax, 6 days
CWR22-RV1 cells = assay: CWR22-RV1 cell proliferation (CellTiter 96); type: cell-based, human; conditions: RNAiMax, 6 days
AR mRNA = AR mRNA in C4-2B cells by free uptake (hAR_LTS00943); type: cell-based, human; conditions: 24 hrs; for Percent inhibition of AR full-length mRNA: free uptake
Method: Cells were plated at a concentration of 1,000 cells/well in 96-well plates to measure cell proliferation, and at 4,000 cells/well to measure target reduction. ISIS 549458, ISIS 549372, ISIS 549434, and ISIS 554221 were added individually at 0.04 μM, 0.20 μM, 1.00 μM, or 5.00 μM. After an incubation period of 24 hrs, mRNA levels were measured using hAR_LTS00943.

full-length AR = assay: Western blot of full-length AR in MDV3100-resistant C4-2B cells; type: cell-based, human; conditions: C4-2B MR cells (Example 16)
C4-2B cells = assay: C4-2B cell proliferation by free uptake (MTT); type: cell-based, human; conditions: day 6
AR full-length mRNA = AR full-length mRNA in CWR22-RV1 cells (RNAiMax, RTS3559); type: cell-based, human; conditions: 6 days
[2] = Liver function markers in cynomolgus monkey plasma; conditions: 40 mg/kg s.c., day 44
Method: (§1) Prior to the study, the monkeys were kept in quarantine for a 30-day period, during which the animals were observed daily for general health. The monkeys were 2-4 years old and weighed between 2 and 4 kg. Thirteen groups of four randomly assigned male cynomolgus monkeys each were injected subcutaneously with ISIS oligonucleotide or PBS. PBS solution or ISIS oligonucleotides, at a dose of 40 mg/kg, were administered with a loading regimen consisting of four doses on the first week of the study (days 1, 3, 5, and 7), followed by a maintenance regimen consisting of once weekly administration starting on Day 14 (weeks 2 to 6). Subcutaneous injections were performed in clock-wise rotations at 4 sites on the back; one site per dose. The injection sites were delineated by tattoo, while sedated using ketamine, and were separated by a minimum of 3 cm.
To evaluate the effect of ISIS oligonucleotides on hepatic function, the monkeys were fasted overnight. Approximately, 1.5 mL of blood samples were collected on day 44 from all the study groups. Blood was collected in tubes without anticoagulant for serum separation. The tubes were kept at room temperature for a minimum of 90 min and then centrifuged at 3,000 rpm for 10 min. Levels of various liver function markers were measured using a Toshiba 120FR NEO chemistry analyzer (Toshiba Co., Japan).

[3] = Full-length oligonucleotide concentration in kidney and liver of cynomolgus monkeys; conditions: cynomolgus monkey, 40 mg/kg subcutaneously
Method: as §1
The concentrations of the full-length oligonucleotide in the kidney and the liver of select treatment groups were measured. The method used is a modification of previously published methods (Leeds et al., 1996; Geary et al., 1999) which consist of a phenol-chloroform (liquid-liquid) extraction followed by a solid phase extraction.

[4] = cynomolgus monkey, in vivo, sc, 40 mg/kg
Method: as §1
Kidney function was also assessed by urinalysis. Fresh urine from all animals was collected on day 44 using a clean cage pan on wet ice. Food was removed overnight the day before fresh urine collection was done but water was supplied. The total protein and creatinine levels were measured using a Toshiba 120FR NEO automated chemistry analyzer (Toshiba Co., Japan) and the protein to creatinine ratio was calculated.

[5] = Plasma BUN and creatinine in cynomolgus monkeys; conditions: cynomolgus monkey, 40 mg/kg s.c., day 44

## CNC(=O)c1ccc(N2C(=S)N(c3ccc(C#N)c(C(F)(F)F)c3)C(=O)C2(C)C)cc1F [MDV3100, 4-(3-(4-cyano-3-(trifluoromethyl)phenyl)-5,5-dimethyl-4-oxo-2-thioxoimidazolidin-1-yl)-2-fluoro-N-methylbenzamide, reference compound]
LMR20 cells
  increase in IC50 of MDV3100 in LMR20 compared to parental LnCaP cells: approximately ten-fold increase in IC50

## GTTGATTTAATGGTTG (all phosphorothioate, sugars by position not given here; further chemistry not fully specified) [ISIS 549458]
[1]; dose 5.0 nM
  Percent inhibition of AR splice variant, V7: 34%
[1]; dose 16.7 nM
  Percent inhibition of AR splice variant, V7: 58%
[1]; dose 50.0 nM
  Percent inhibition of AR splice variant, V7: 82%
CWR22-RV1 cells; dose 5.0 nM
  Percent inhibition of cell proliferation: 0%
CWR22-RV1 cells; dose 16.7 nM
  Percent inhibition of cell proliferation: 17%
CWR22-RV1 cells; dose 50.0 nM
  Percent inhibition of cell proliferation: 40%
AR mRNA; free uptake 0.04-5.00 μM
  AR mRNA expression: inhibited AR mRNA expression more potently than ISIS 554221
AR mRNA; dose 0.04 μM
  Percent inhibition of AR full-length mRNA: 16%
AR mRNA; dose 0.20 μM
  Percent inhibition of AR full-length mRNA: 48%
AR mRNA; dose 1.00 μM
  Percent inhibition of AR full-length mRNA: 80%
AR mRNA; dose 5.00 μM
  Percent inhibition of AR full-length mRNA: 86%
full-length AR
  levels of full-length AR (Western analysis): reduced levels of full-length AR and AR-V7
C4-2B cells; dose 0.04 μM
  Percent inhibition of cell proliferation: 7%
C4-2B cells; dose 0.20 μM
  Percent inhibition of cell proliferation: 31%
C4-2B cells; dose 1.00 μM
  Percent inhibition of cell proliferation: 45%
C4-2B cells; dose 5.00 μM
  Percent inhibition of cell proliferation: 41%
AR full-length mRNA; dose 5.0 nM
  Percent inhibition of AR full-length mRNA: 41%
AR full-length mRNA; dose 16.7 nM
  Percent inhibition of AR full-length mRNA: 61%
AR full-length mRNA; dose 50.0 nM
  Percent inhibition of AR full-length mRNA: 78%

## TTGATTTAATGGTTGC [ISIS 560131] (MOE and (S)-cEt gapmer chemistry, further chemistry not given here)
[2]
  tolerability: liver function markers: well tolerated in terms of the liver function markers
[3]
  Oligonucleotide concentration, Kidney: 2029 μg/g tissue
[4]
  Urine protein/creatinine ratio: 0.02
[5]
  tolerability: kidney function: well tolerated in terms of the kidney function of the monkeys
